Results taken from ChEMBL document CHEMBL1146107, “Investigation of mechanism-based thrombin inhibitors: Implications of a highly conserved water molecule for the binding of coumarins within the S pocket” (Bioorg Med Chem Lett, 2006).

Target: Prothrombin (Homo sapiens, UniProt P00734)
Assay: Inhibition of thrombin

Row | IC50 [µM] | SMILES
1 | > 300 | N=C(N)Nc1cccc(OC(=O)c2cc3cc(CCl)ccc3oc2=O)c1
2 | 107 | N=C(N)NCCOC(=O)c1cc2cc(CCl)ccc2oc1=O
3 | 284 | NCCOC(=O)c1cc2cc(CCl)ccc2oc1=O
4 | > 300 | NCCCOC(=O)c1cc2cc(CCl)ccc2oc1=O
5 | > 300 | NC(N)=NCCCOC(=O)c1cc2cc(CCl)ccc2oc1=O
6 | 151 | N=C(N)Nc1ccc(OC(=O)c2cc3cc(CCl)ccc3oc2=O)cc1
7 | 1.98 | Nc1cccc(OC(=O)c2cc3cc(CCl)ccc3oc2=O)c1
8 | 48 | Nc1ccc(OC(=O)c2cc3cc(CCl)ccc3oc2=O)cc1
9 | 0.87 | O=C(Oc1cccc(Cl)n1)c1cc2cc(CCl)ccc2oc1=O
10 | > 300 | O=C(Oc1cncc(Cl)c1)c1cc2cc(CCl)ccc2oc1=O
11 | > 300 | NC1CCC(OC(=O)c2cc3cc(CCl)ccc3oc2=O)CC1 (stereo not drawn)
12 | > 300 | O=C(OC1CCNCC1)c1cc2cc(CCl)ccc2oc1=O
13 | 1.39 | Cc1cccc(OC(=O)c2cc3cc(CCl)ccc3oc2=O)n1
